Structures can show the parent of a compound that is named as a salt.
Assays:
rotarod test, mice = conditions: mouse, in vivo, 15 min before test
Description: (§1) The side-effect profile of CHF 3381 was then evaluated in the rotarod test both in mice and rats. The day before the execution of the test, mice and rats were trained to maintain their equilibrium on the test apparatus. For mice, training consisted of 3 subsequent 2 min attempts on a rod rotating from 4.5 r.p.m. to 16.5 r.p.m.; for rats, of 3 subsequent 1 min attempts at 8 rpm (Kinnard and Carr, 1957). The morning of the test day, mice and rats were again tested on the rotarod and only animals able to maintain their equilibrium on the rod were retained for the experimental procedure. CHF 3381 was administered p.o. or i.p. to groups of at least 8 animals 15 min (time of peak effect for neurotoxicity) before the execution of the test. All controls received the corresponding vehicle. The number of mice falling during a 2-min test period and the number of rats falling for 3 subsequent 1-min attempts were used for the calculation of the respective doses at which 50% of the animals display neurotoxicity (TD50).

NMDA receptors channels = conditions: displacement of [3H]-TPC; cited from earlier work
rotarod test, rats = conditions: rat, in vivo, 15 min before test
Description: as §1

seizure models = conditions: in vivo; cited from earlier work
rat MES model = conditions: cited from earlier work
[1] = tested on: formalin-induced licking and flinching; test: mouse formalin test, 9 day treatment (tolerance); type: in vivo, mice
Description: The mice paw formalin test was performed as described by Wheeler-Aceto et al. (Psychopharmacology 104:35-44, 1991). Briefly, the day before the formalin injection, mice were placed individually into clear plastic cylinders for 30 minutes of adaptation. The day of testing 20 μl of 1% formalin was injected into the plantar surface of the left hind paw and the animals were again placed into the plastic cylinder for the behavioural observation. The amount of time, in seconds, the animals spent licking and flinching (L/F) the injected paw for the first 5 min (early phase), and then from 10 to 40 min(late phase) after formalin injection, was used as measurement of intensity of pain. CHF 3381 10-100 mg/kg i.p. and 25-200 mg/kg p.o. or the corresponding vehicles, were administered 15 and 30 min before formalin injection, respectively.
Moreover, the formalin test was used to examine whether tolerance develops with respect to the antihyperalgesic effect of CHF 3381 after chronic treatment in comparison with the standard opioid morphine. Briefly, mice were divided randomly into five groups (12 mice per group) and administered once daily for 8 days as follows: three groups with saline i.p., one group with CHF 3381 60 mg/kg i.p. and one group with morphine 20 mg/kg i.p. On ninth day these groups were treated in following way: one saline pre-treated group was treated with saline i.p. (g1); two saline pre-treated group were treated with CHF 3381 30 mg/kg i.p. (g2) and with morphine 6 mg/kg i.p. (g3), respectively; the group pre-treated with CHF 3381 60 mg/kg was treated with CHF 3381 30 mg/kg i.p. (g4) and the group pre-treated with morphine 20 mg/kg was treated with morphine 6 mg/kg i.p.(g5), a dose that was previously shown to be active in the formalin test. CHF 3381 and morphine were administered 15 and 30 min before formalin injection, respectively.

[2] = tested on: thermal hyperalgesia produced by CCI; test: Chronic Constriction Injury (CCI) model, thermal hyperalgesia (plantar test); type: in vivo; conditions: rat CCI
Description: The potential analgesic activity of CHF 3381 was evaluated the Chronic Constriction Injury (CCI) model described by Bennett et al (Pain 1988, 33: 87-107). Briefly, the rat left common sciatic nerve was exposed, and proximal to the sciatic trifurcation about 10 mm of nerve was freed of adhering tissue and four ligatures (4.0 silk ) were loosely tied around it with about 1 mm of spacing.
Two tests of hind limb withdrawal to thermal and cold stimuli were employed in this study. Each test was repeated on both the operated hind paw and the controlateral hind paw.
Rats were tested for thermal hyperalgesia using a commercial available analgesimeter (Plantar test, Ugo Basile, Comerio Italy) by applying heat stimulus (50 W, 8V) directed onto the plantar surface of each hind paw, and the paw withdrawal latency (s) was determined. Four latency measurements were taken for each hind paw and averaged. The apparatus was calibrated to give a paw withdrawal latency of approximately 10 sec. The results were expressed as the difference score (DS) by subtracting the latency of the control side from the latency of the ligated side; if this difference was less than 1.5 sec, the animal was not included in the experimental groups. CHF 3381 (10-30-60 mg/kg intraperitoneally -i.p.-) or vehicle were administered to animals 14-21 days after ligation and hyperalgesia tested 1, 2 and 4 hours after treatment. CHF3381 reversed the thermal hyperalgesia produced by CCI in a dose- and time-dependent manner with a maximum effect at 60 min after the administration.

[3] = tested on: mechanical hyperalgesia in streptozotocin (STZ)-induced diabetic neuropathy; test: streptozotocin-induced diabetic neuropathy, paw pressure test; type: in vivo, rat; conditions: for Nociceptive threshold: 60 minutes before measurement; for % variation of the nociceptive threshold: vs vehicle-treated diabetic group
Description: The objective of this study was to assess the antinociceptive effects of CHF 3381 (25, 50 and 100 mg/kg p.o.) and gabapentin (100 mg/kg p.o) on mechanical hyperalgesia in streptozotocin (STZ)-induced diabetic neuropathy in rats. Diabetes was induced by intraperitoneal injection of STZ (75 mg/kg), and 23 days later its presence was confirmed by measuring of tail vein blood glucose levels and only rats with […] were included in the study.
After 25 days, distilled water, CHF3381 and gabapentin were administered 60 minutes before pain measurement. The nociceptive threshold was evaluated in all groups using a mechanical nociceptive stimulation (paw pressure test).
An increasing pressure (grams of contact pressure) was applied onto the both hind paws of the animal until a nociceptive reaction (vocalisation or paw withdrawal) was determined. The results, expressed as the percentage variation of the nociceptive threshold calculated respect the mean value of the vehicle-treated diabetic group, are reported in Table 2.

[4] = tested on: ion channel associated to NMDA receptors; test: inhibiting activity on NMDA-associated ion channel; type: biochemical
[5] = G2: 30 mg/kg i.p. on ninth day after 8 days saline
[6] = G4: 30 mg/kg i.p. on ninth day after 8 days CHF 3381 60 mg/kg i.p.

## NC(=O)CNC1Cc2ccccc2C1 [CHF 3381, N-2(indanyl)-glicinamide hydrochloride]
Rotarod test, mice; ip, i.p. administration
  TD50 at 15 min: 96 mg/kg
Rotarod test, mice; oral administration
  TD50 at 15 min: 233 mg/kg
NMDA receptors channels
  Ki: 8.8 µM
Rotarod test, rats; ip, i.p. administration
  TD50 at 15 min: 113 mg/kg
Rotarod test, rats; oral administration
  TD50 at 15 min: 299 mg/kg
Seizure models
  antagonism of 4-aminopyridine- and bicuculline-induced tonic seizures: weaker antagonist
  behavioral effects and lethality of systematically administered NMDA: antagonize
  effect against maximal electroshock seizures, picrotoxin- and NMDA-induced hind limb tonic extension: very effective
  effect against pentylentetrazole- and picrotoxin-induced clonic seizures: ineffective
Rat MES model
  anti-convulsivant activity: anti-convulsivant activity
[1]; [5]
  Early phase: 53 ± 8 s
  Late phase: 91 ± 21 s
[1]; [6]
  Early phase: 56 ± 6 s
  Late phase: 74 ± 21 s
[1]; once daily for 8 days, test on ninth day
  antihyperalgesic action after chronic treatment (tolerance): lack of development of tolerance
[2]; 10 mg/kg i.p.
  Hyperalgesia Difference score (DS): 1.41 ± 0.36 s
[2]; 30 mg/kg i.p.
  Hyperalgesia Difference score (DS): 0.83 ± 0.35 s
[2]; 60 mg/kg i.p.
  Hyperalgesia Difference score (DS): 0.68 ± 0.14 s
[3]; 25 mg/kg p.o.
  Nociceptive threshold: 250.0 ± 17.0 g
  % variation of the nociceptive threshold: 83%
[3]; 50 mg/kg p.o.
  Nociceptive threshold: 319.2 ± 48.5 g
  % variation of the nociceptive threshold: 134%
[3]; 100 mg/kg p.o.
  Nociceptive threshold: 287.5 ± 20.3 g
  % variation of the nociceptive threshold: 110%
[4]
  inhibiting activity towards ion channel associated to NMDA receptors: inhibiting activity
